Source: US20180215734A1, “PYRIMIDINE DERIVATIVES AS KINASE INHIBITORS AND THEIR THERAPEUTICAL APPLICATIONS” (NantBioScience, Inc., priority 2016, published 2018)
Where two headings read alike, the source gives them in different places.

How the values were obtained:
[1] = test system: Kato III; test: Inhibition of proliferation (CellTiterblue, 72 hr), Kato III; assay type: cell-based
Procedure: (§1) A number of studies were performed to analyze the consequences of tyrosine kinase inhibition in cell lines. To do this, 1000 cells are seeded in 27 μl/well in 384-well microplates, which are then placed in a humidified CO2 incubator at 37° C. overnight. The next day, 3 μl/well of 10× concentrated drug is added and the plates are returned to the incubator for 72 hr. After 72 hr incubation, plates are removed and 6 μl/well CellTiterblue (Promega) viability reagent is added. Plates are returned to the incubator for 3 hrs, after which fluorescence measurements are read on the Victor X3 plate reader (Perkin Elmer). Data are analyzed using Excel (Microsoft), and GI50 values are determined using Prism (Graphpad).

[2] = test system: TG1a Human AML Xenograft; test: Antitumor efficacy on TG1a human AML xenograft; assay type: in vivo, mouse; conditions: 20 mg/kg, Qdx10, IP
Procedure: In this Example the antitumor activity of compounds 14, 17, 19, 45, and 48 of the current invention are tested using an art-recognized xenograft model of AML. (“T/C” refers to the ratio of the tumor's size in treated animals versus the tumor size in control untreated animals. “BWC” refers to “body weight change”).

[3] = test system: RT112; test: Inhibition of proliferation (CellTiterblue, 72 hr), RT112; assay type: cell-based
Procedure: as §1

[4] = molecular target: KDR(h) (Homo sapiens, UniProt P35968); test: Kinase assay, KDR(h); assay type: biochemical
Procedure: (§2) Kinase assay protocols well known to those of ordinary skill in the art were used. Specifically, the buffer composition was as follows: 20 mM MOPS, 1 mM EDTA, 0.01% Brij-35, 5% Glycerol, 0.1% β-mercaptoethanol, 1 mg/mL BSA. Test compounds were initially dissolved in DMSO at the desired concentration, then serially diluted to the kinase assay buffer. In a final reaction volume of 25 μL FGFR1(h) (5-10 mU) and KDR(h) (5-10 mU) are incubated with 8 mM MOPS pH 7.0, 0.2 mM EDTA, 200 μM LRRASLG (Kemptide), 10 mM magnesium acetate and [γ^33P-ATP]. The reaction was initiated by the addition of the MgATP mix. After incubation for 40 minutes at room temperature, the reaction was stopped by addition of 5 μL of a 3% phosphoric acid solution. Ten L of the reaction was then spotted onto a P30 filter mat and washed three times for 5 minutes in 50 mM phosphoric acid and once in methanol prior to drying and scintillation counting. Wells containing substrate but no kinase and wells containing a phosphopeptide control were used to set 0% and 100% phosphorylation value, respectively.
(§3) Of all of the steps in developing a drug, the hardest is finding promising compounds. (See, e.g., Malo et al., “Statistical practice in high-throughput screening data analysis,” Nature Biotechnology, 2006, 24, 167-75.) Kinase inhibitors often also have an anti-proliferative effect. […] The kinase inhibitory activity Compound 19 was tested using the kinase assay described in Example 3. […] These mutations in the tested kinases are thought to play an important role in transformation of some cancers.

[5] = test system: KG1a; test: Inhibition of proliferation (CellTiterblue, 72 hr), KG1a; assay type: cell-based, human; conditions: 72 hr
Procedure: as §1

[6] = molecular target: FGFR1(h) (Homo sapiens, UniProt P11362); test: Kinase assay, FGFR1(h); assay type: biochemical; conditions: 1 μM
Procedure: as §2, §3

[7] = test system: SNU16; test: Inhibition of proliferation (CellTiterblue, 72 hr), SNU16; assay type: cell-based
Procedure: as §1

[8] = Metabolic stability, human liver microsomes; assay type: in vitro ADME
[9] = Metabolic stability, rat liver microsomes; assay type: in vitro ADME
[10] = Metabolic stability, mouse liver microsomes; assay type: in vitro ADME

Chain of KDR(h) (P35968 20-1356): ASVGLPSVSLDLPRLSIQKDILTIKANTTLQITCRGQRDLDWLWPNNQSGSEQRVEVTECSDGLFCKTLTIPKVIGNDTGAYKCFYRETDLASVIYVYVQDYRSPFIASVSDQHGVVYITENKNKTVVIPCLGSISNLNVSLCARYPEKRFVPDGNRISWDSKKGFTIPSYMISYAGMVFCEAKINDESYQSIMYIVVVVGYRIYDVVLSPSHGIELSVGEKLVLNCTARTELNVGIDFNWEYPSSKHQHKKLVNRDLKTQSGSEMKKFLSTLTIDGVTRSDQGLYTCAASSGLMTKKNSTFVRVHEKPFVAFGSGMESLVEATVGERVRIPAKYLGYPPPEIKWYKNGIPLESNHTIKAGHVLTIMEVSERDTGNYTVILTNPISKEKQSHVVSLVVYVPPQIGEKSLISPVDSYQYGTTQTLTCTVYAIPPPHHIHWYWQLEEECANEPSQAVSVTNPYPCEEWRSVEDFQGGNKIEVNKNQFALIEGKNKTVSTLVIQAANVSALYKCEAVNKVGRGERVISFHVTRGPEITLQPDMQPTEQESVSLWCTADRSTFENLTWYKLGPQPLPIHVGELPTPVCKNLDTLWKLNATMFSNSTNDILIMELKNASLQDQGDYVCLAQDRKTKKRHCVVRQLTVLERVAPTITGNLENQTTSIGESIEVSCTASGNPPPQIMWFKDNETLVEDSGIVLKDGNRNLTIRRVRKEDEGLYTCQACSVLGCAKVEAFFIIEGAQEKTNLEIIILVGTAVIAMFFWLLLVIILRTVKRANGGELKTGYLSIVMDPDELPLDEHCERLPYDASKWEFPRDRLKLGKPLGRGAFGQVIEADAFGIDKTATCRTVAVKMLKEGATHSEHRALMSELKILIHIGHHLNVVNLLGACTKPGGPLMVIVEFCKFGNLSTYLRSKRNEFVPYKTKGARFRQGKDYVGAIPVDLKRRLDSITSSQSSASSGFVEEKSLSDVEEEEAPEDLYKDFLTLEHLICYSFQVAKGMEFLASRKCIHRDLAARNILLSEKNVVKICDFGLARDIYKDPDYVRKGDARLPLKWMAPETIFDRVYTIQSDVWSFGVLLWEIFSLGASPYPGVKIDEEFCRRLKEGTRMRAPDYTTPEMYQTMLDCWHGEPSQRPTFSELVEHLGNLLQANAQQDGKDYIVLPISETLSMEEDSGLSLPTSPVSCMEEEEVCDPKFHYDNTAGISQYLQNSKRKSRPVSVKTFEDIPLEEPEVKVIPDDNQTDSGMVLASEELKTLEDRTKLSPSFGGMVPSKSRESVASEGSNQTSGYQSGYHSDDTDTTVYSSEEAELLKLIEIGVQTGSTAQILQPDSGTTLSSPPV
Chain of FGFR1(h) (P11362 22-822): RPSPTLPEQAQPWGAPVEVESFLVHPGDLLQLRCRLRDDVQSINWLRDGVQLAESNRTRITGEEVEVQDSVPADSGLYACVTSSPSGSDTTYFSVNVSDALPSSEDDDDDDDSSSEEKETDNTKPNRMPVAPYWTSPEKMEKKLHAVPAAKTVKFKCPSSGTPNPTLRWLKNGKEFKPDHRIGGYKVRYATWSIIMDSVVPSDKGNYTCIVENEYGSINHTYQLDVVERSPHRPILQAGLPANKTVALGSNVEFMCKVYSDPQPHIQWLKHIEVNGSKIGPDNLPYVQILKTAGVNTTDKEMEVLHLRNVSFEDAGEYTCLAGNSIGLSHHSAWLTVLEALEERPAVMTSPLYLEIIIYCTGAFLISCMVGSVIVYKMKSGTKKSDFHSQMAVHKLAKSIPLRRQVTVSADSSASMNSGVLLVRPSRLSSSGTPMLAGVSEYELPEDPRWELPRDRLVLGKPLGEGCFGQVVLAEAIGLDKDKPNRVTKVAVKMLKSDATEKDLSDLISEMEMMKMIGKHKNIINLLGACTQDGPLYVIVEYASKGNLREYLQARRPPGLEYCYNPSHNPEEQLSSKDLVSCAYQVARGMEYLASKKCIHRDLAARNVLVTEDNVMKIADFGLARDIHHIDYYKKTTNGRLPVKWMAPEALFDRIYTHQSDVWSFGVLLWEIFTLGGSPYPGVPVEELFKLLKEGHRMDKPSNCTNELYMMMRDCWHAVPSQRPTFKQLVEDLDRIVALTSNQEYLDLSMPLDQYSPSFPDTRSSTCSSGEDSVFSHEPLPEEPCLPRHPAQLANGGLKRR

BWC (%) [2] [%] | inhibition at 1 µM [4] [%] | inhibition at 1 µM [6] [%] | GI50 ([7]; Homo sapiens, SNU-16, 72 h) [nM] | % Inhibition at 1 μM KDR(h) ([4]; 1 μM) [%] | % Inhibition at 1 μM FGFR1(h) [6] [%] | GI50 [7] [nM] | half-life [8] [min] | half-life [9] [min] | half-life [10] [min] | Structure (SMILES) | GI50 ([1]; Homo sapiens, KATO III, 72 h) [nM] | T/C (%) (day14) [2] | GI50 ([3]; Homo sapiens, RT-112, 72 h) [nM] | GI50 ([5]; Homo sapiens, KG-1a) [nM] | GI50 [3] [nM] | GI50 [1] [nM] | GI50 [5] [nM]
−4.0 | 93 | 99 | 23 |  |  |  |  |  |  | Cc1cc2c(F)c(Oc3ncnc(Nc4ccc(N5CCNCC5)cc4)c3C#N)cc(F)c2[nH]1 [Compound 14] | 137 | −60.6 | 76 | 1.6 |  |  | 
−5.7 | 96 | 100 | 20 |  |  |  |  |  |  | Cc1cc2c(F)c(Oc3ncnc(Nc4ccc(N5C[C@@H](C)N[C@@H](C)C5)cc4)c3C#N)ccc2[nH]1 [Compound 17] | 113 | −79.5 | 83 | 0.74 |  |  | 
 | 89 | 101 | 12 |  |  |  |  |  |  | Cc1cc2c(F)c(Oc3ncnc(Nc4ccc(N5CCN[C@@H](C)C5)cc4)c3C#N)cc(F)c2[nH]1 [Compound 33] | 88 |  |  | 0.28 | 126 |  | 
 |  |  |  | 89 | 100 | 22 |  |  |  | Cc1cc2c(F)c(Oc3ncnc(Nc4ccc(N5CCN[C@@H](C)C5)cc4)c3C#N)cc(F)c2[nH]1 [Compound 34] |  |  |  |  | 52 | 98 | 0.28
−11.7 | 73 | 101 | 15 |  |  |  |  |  |  | Cc1cc2c(F)c(Oc3ncnc(Nc4ccc(N5C[C@@H](C)N(C)[C@@H](C)C5)cc4)c3C#N)cc(F)c2[nH]1 [Compound 45] | 79 | 4.9 | 37 | 0.43 |  |  | 
 | 90 | 101 | 22 |  |  |  |  |  |  | Cc1cc2c(F)c(Oc3ncnc(Nc4ccc(N5CCN(C)C(C)C5)cc4)c3C#N)cc(F)c2[nH]1 (centres unmarked) [Compound 46] | 111 |  | 48 | 1.37 |  |  | 
 | 74 | 101 | 22 |  |  |  |  |  |  | CCN1[C@H](C)CN(c2ccc(Nc3ncnc(Oc4cc(F)c5[nH]c(C)cc5c4F)c3C#N)cc2)C[C@@H]1C [Compound 47] | 123 |  | 48 | 0.5 |  |  | 
−3.8 | 84 | 100 | 35 |  |  |  |  |  |  | CCN1CCN(c2ccc(Nc3ncnc(Oc4cc(F)c5[nH]c(C)cc5c4F)c3C#N)cc2)CC1C (centres unmarked) [Compound 48] | 152 | −72.8 | 57 | 0.55 |  |  | 
 | 82 | 101 | 24 |  |  |  |  |  |  | Cc1cc2c(F)c(Oc3ncnc(Nc4ccc(N5[C@H](C)CNC[C@@H]5C)cc4)c3C#N)cc(F)c2[nH]1 [Compound 49] | 86 |  | 48 | 0.6 |  |  | 
 | 88 | 101 | 52 |  |  |  |  |  |  | Cc1cc2c(F)c(Oc3ncnc(Nc4ccc(N5CCN6CCCC6C5)cc4)c3C#N)cc(F)c2[nH]1 (centres unmarked) [Compound 50] | 174 |  | 49 | 2.91 |  |  | 
 | 80 | 101 | 66 |  |  |  |  |  |  | Cc1cc2c(F)c(Oc3ncnc(Nc4ccc(N5CCN6CCCCC6C5)cc4)c3C#N)cc(F)c2[nH]1 (centres unmarked) [Compound 51] | 208 |  | 73 | 1.62 |  |  | 
 | 93 | 100 | 28 |  |  |  |  |  |  | C=CC(=O)Nc1cccc(Nc2ncnc(Oc3cc(F)c4[nH]c(C)cc4c3F)c2C#N)c1 [Compound 53] | 152 |  | 94 | 3.59 |  |  | 
 | 94 | 101 | 24 |  |  |  |  |  |  | C=CC(=O)Nc1ccc(Nc2ncnc(Oc3cc(F)c4[nH]c(C)cc4c3F)c2C#N)cc1 [Compound 56] | 106 |  | 134 | 5.59 |  |  | 
 |  |  |  |  |  |  | 7.5 | 11.9 | 9.2 | Cc1nc(Nc2ncc(C(=O)Nc3c(C)cccc3Cl)s2)cc(N2CCN(CCO)CC2)n1 [DASATINIB, dasatinib, reference compound] |  |  |  |  |  |  | 
